Reference: patent publication US20220281931A1, “CHEMICALLY INDUCIBLE POLYPEPTIDE POLYMERIZATION” (Dana-Farber Cancer Institute, Inc., priority 2019, published 2022)

Legend:
BCL6^5-129 = target: T1, BCL6^5-129 (Homo sapiens, UniProt P41182); test: BCL6-BCoR TR-FRET (compound binding assay); settings: 0.1 μM FITCBCoR polypeptide, 0.1 μM BiotinBCL6^5-129
T1 construct: mixing 100 nM biotinylated BCL6^5-129, 100 nM N-terminal FITC-labeled BCoR peptide; made in house; host or cells: Trichoplusia ni High Five insect cells, baculovirus
Protocol: Competitive titration of BI-3802 or BI-3812 were carried out by mixing 100 nM biotinylated BCL6^5-129, 100 nM N-terminal FITC-labeled BCoR peptide (sequence: […]), and 2 nM terbium-coupled streptavidin in the same assay buffer. After dispensing the assay mixture (15 μL volume), increasing concentrations of compounds were dispensed in a 384-well microplate (Corning, 4514) using a D300e Digital Dispenser (HP) normalized to 1% DMSO. The 520/490 nm ratios were measured as described above and plotted to calculate the KD^APP values using dose-response analysis standard four parameter log-logistic curves using the dr4pl R package.

[1] = target: T2, Nano-LuciferaseSIAH1^C44S and HaloTagBCL6 (Homo sapiens, UniProt P41182); test: NanoBRET BCL6-SIAH1 interaction in HEK293T cells; assay type: cell-based; settings: 1 μM, 2 hours
T2 construct: expressed in transfected cells; host or cells: HEK293T cells, transient transfection
Protocol: Bioluminescence resonance energy transfer (BRET) experiments were performed using a NanoBRET PPI starter kit (Promega N1821) according to the manufacturer's instructions and as previously described (Sperling, A. S. et al. Patterns of substrate affinity, competition, and degradation kinetics underlie biological activity of thalidomide analogs. Blood 134, 160-170, doi:10.1182/blood.2019000789 (2019)).

BCL6^5-360 = target: T3, BCL6^5-360 (Homo sapiens, UniProt P41182); test: Size-exclusion chromatography of purified recombinant BCL6; assay type: biochemical; settings: purified BCL6^5-360, 2 μM compound
T3 construct: size-exclusion chromatogram of purified BCL6^5-360 in the presence of DMSO; made in house; host or cells: Trichoplusia ni High Five insect cells, baculovirus
From the text: The human wild-type and mutant versions of BCL6 (residue 5-129 or 5-360) and SIAH1 variants (residue 90-282 (substrate binding domain, SBD) or full length), were cloned in pAC-derived vectors. Baculovirus for protein expression (Invitrogen) was generated by transfection into Spodoptera frugiperda (Sf9) cells at a density of 0.9×10^6 cells/mL grown in ESF 921 media (Expression Systems), followed by three rounds of infection in Sf9 cells to increase viral titer. Recombinant proteins were expressed and purified as N-terminal His6 C-terminal Spy (wild-type and mutant versions of BCL6^5-360), N-terminal Strep II-Avi (BCL6^5-129, BCL6^5-360, and SIAH1^SBD), and N-terminal Flag (SIAH1^FL) fusions in Trichoplusiani High Five insect cells using the baculovirus expression system (Invitrogen).

[2] = target: T4, eGFPBCL6 stability reporter (Homo sapiens, UniProt P41182); test: Degradation of BCL6 reporter constructs in HEK293T cells (flow cytometry); assay type: cell-based; settings: HEK293T cells, 1 μM, 1 hour
T4 construct: the full length BCL6 (BCL6^FL) was fused in-frame with eGFP; expressed in transfected cells; host or cells: HEK293TCas9 cells, lentiviral transduction (Artichoke vector)
Protocol: Lentivirus was packaged in HEK293T cells using TransIT (Mirus) and subsequently used for spin infection.
HEK293TCas9 cells expressing indicated constructs in “Artichoke” or “Cilantro2” stability reporter vectors (PGK or SFFV Target-eGFP-IRES-mCherry, puromycin resistance) were plated in 96 well plates and treated for indicated times. BCL6-eGFP and mCherry expression were quantified by flow cytometry (CytoFLEX, Beckman or LSR Fortessa flow cytometer BD Biosciences). All degradation assays were done in at least triplicates. Geometric means of eGFP and mCherry fluorescent signals for live and mCherry positive cells were exported using flow cytometry analysis software (FlowJo, BD). Ratios of eGFP to mCherry were normalized to the average of DMSO-treated controls.

BCL6^5-360 - SIAH1^SBD = target: T5, BCL6^5-360 - SIAH1^SBD (Homo sapiens, UniProt P41182); test: BCL6-SIAH1 TR-FRET; assay type: biochemical; settings: preassembled 0.2 μM BodipyBCL6^5-360 and 0.2 μM BiotinSIAH1^SBD, in vitro; read-out: EC50 for increase of the BCL6-SIAH1 interaction
T5 construct: 200 nM BodipyFL-labeled BCL6^5-360 variants; His6 (N); Spy (C); made in house; host or cells: Trichoplusia ni High Five insect cells, baculovirus
Protocol: After dispensing the assay mixture (15 μL volume), increasing concentrations of compounds were dispensed in a 384-well microplate (Corning, 4514) using a D300e Digital Dispenser (HP) normalized to 1% DMSO. After excitation of terbium fluorescence at 337 nm, emission at 490 nm (terbium) and 520 nm (BodipyFL) were recorded with a 70 us delay over 600 μs to reduce background fluorescence, and the reaction was followed over 60 cycles of each data point using a PHERAstar FS microplate reader (BMG Labtech). The TR-FRET signal of each data point was extracted by calculating the 520/490 nm ratio. The half-maximal effective concentration (EC50) values were estimated using dose-response analysis standard four parameter log-logistic curves, fitted to the experimental data using […] package. […] After dispensing the assay mixture, increasing concentration of BodipyFL-BCL6^5-360 was added to the SIAH1 mixture in a […] (7.5 μL each, total 15 μL assay volume). The 520/490 nm ratios were measured in as described above and plotted to calculate the KD^APP values using dose-response analysis standard four parameter log-logistic curves using […] package.

SuDHL4Cas9 cells = test: Whole proteome quantification using tandem mass tag mass spectrometry; assay type: cell-based, human; settings: SuDHL4 cells, 1 μM compound, 4 hours
Protocol: 10×10^6 SuDHL4Cas9 cells were treated with DMSO, 1 μM BI-3802 or 1 μM BI-3812 for 1 h or 4 h in triplicates and cells were harvested by centrifugation. Samples were processed, measured and analyzed as previously described (Donovan, K. A. et al. Thalidomide promotes degradation of SALL4, a transcription factor implicated in Duane Radial Ray syndrome. Ehfe 7, doi:10.7554/eLife.38430 (2018)). Data are available in the PRIDE repository (PXD016185).

Structure (SMILES): CNC(=O)COc1cc2cc(Nc3nc(N4C[C@H](C)C[C@H](C)C4)ncc3Cl)ccc2n(C)c1=O [BI-3802, 2-((6-((5-chloro-2-((3S,5R)-3,5-dimethylpiperidin-1-yl)pyrimidin-4-yl)amino)-1-methyl-2-oxo-1,2-dihydroquinolin-3-yl)oxy)-N-methylacetamide]
- affinity of compound to BCL6 (BCoR peptide competition) (BCL6^5-129): comparable affinity
- effect on the BCL6-SIAH1 interaction in cells (mBRET signal) [1]: increased the interaction between BCL6 and SIAH1
- higher molecular weight species of recombinant BCL6 (BCL6^5-360): led to higher molecular weight species of BCL6
- degradation of full-length BCL6 reporter (eGFPBCL6^FL) [2]: induced degradation of the full-length BCL6 reporter
- EC50 (BCL6^5-360 - SIAH1^SBD): 64 nM
- change in polypeptide abundance (whole proteome) (SuDHL4Cas9 cells): BCL6 was the only polypeptide with significantly decreased abundance
